Data reported in patent publication US12065443B2, “Compounds and pharmaceutical compositions thereof for the treatment of diseases” (priority 2017, dated 2024).
Where two headings read alike, the source gives them in different places.

Key:
[1] = test system: LPS driven TNFα secretion in Peripheral Blood Mononuclear Cells (PBMC); assay: cells; format: cell-based; settings: Homo sapiens, LPS 1 ng/mL, supernatant after 18-20 h, ELISA
Description: This assay measures the inhibition of LPS driven TNFα secretion by a test compound in Peripheral Blood Mononuclear Cells (PBMC), which in turn correlates with SIK inhibition.
PBMCs are isolated from human blood samples (buffy coats). The buffy coat is aseptically transferred into a 50 mL Falcon™ tube, and diluted 1/2 in Phosphate Buffered Saline (PBS). […] The tubes are centrifuged for 35 min at 400× g in temperature controlled centrifuge, without brake, at 25° C. PBMCs are aspirated from the white interface layer between sample and Lymphoprep. PBMCs are washed five times in PBS. […] The PBMCs are finally seeded at 400,000 PBMC/160 μL/96-well.
A compound dilution plate is made in 100% DMSO by 3-fold dilution of 10 mM stock solution of test compound. An intermediate dilution plate (10× final concentration) is made by diluting the compound dilution plate 50-fold in RPMI medium.
20 μL of the 10× final concentration compound is added to the cells and incubated for 1 hour at 37° C. before addition of trigger. No trigger conditions/trigger conditions are spiked with equal final DMSO concentrations of 0.2% DMSO. 20 μL of 10×LPS (final concentration 1 ng/mL) solution are added to all wells except for the ‘no trigger wells’ where 20 μL medium is added. Supernatant is collected after 18-20 h for IL-10 and TNFα determination using ELISA.
The plate is then washed once with PBST (PBS+0.05% Tween20) and once with PBS followed by the addition of 100 μL of blocking buffer (1% Bovine Serum Albumin (BSA)-5% Sucrose) and plates are sealed and incubated for at least 4 h at RT. After washing the plate once with PBST and once with PBS, 40 μL of standard or sample are added (TNFα standard curve is prepared using a 1/2 serial dilution starting from 16000 pg/mL; dilutions are made in dilution buffer (PBS+1% BSA)). Plates are washed twice with PBST, and once with PBS, after which 35 μL of the detection antibody is added (final concentration 0.25 μg/mL diluted in dilution buffer) and plates are incubated for at least 2 h at RT. Plates are washed twice with PBST, and once with PBS, where after 35 μL of Strep-HRP conjugate (0.5 μg/mL final concentration diluted in dilution buffer) is added. Plates are incubated in the dark, at RT for at least 45 min but no longer than 1 hour. Plates are washed twice with PBST, and once with PBS. Thereafter, 50 μL of luminol substrate is added to each well (prepared according to manufacturer's instructions), and incubated for 5 min at RT protected from light.
To measure the inhibition of LPS induced TNFα, percentage inhibition (PIN) values are calculated for all concentrations tested, compared to controls.
PIN values are plotted in concentration-response and EC50 values are derived using GraphPad Prism Software, applying 4-parameter nonlinear regression (sigmoidal) curve fitting.

SIK3 [2] = target: T1, SIK3 (Homo sapiens, UniProt Q9Y2K2); assay: biochemical
T1 construct: purchased SignalChem S12-11G-100
T1 sequence (Q9Y2K2 whole entry): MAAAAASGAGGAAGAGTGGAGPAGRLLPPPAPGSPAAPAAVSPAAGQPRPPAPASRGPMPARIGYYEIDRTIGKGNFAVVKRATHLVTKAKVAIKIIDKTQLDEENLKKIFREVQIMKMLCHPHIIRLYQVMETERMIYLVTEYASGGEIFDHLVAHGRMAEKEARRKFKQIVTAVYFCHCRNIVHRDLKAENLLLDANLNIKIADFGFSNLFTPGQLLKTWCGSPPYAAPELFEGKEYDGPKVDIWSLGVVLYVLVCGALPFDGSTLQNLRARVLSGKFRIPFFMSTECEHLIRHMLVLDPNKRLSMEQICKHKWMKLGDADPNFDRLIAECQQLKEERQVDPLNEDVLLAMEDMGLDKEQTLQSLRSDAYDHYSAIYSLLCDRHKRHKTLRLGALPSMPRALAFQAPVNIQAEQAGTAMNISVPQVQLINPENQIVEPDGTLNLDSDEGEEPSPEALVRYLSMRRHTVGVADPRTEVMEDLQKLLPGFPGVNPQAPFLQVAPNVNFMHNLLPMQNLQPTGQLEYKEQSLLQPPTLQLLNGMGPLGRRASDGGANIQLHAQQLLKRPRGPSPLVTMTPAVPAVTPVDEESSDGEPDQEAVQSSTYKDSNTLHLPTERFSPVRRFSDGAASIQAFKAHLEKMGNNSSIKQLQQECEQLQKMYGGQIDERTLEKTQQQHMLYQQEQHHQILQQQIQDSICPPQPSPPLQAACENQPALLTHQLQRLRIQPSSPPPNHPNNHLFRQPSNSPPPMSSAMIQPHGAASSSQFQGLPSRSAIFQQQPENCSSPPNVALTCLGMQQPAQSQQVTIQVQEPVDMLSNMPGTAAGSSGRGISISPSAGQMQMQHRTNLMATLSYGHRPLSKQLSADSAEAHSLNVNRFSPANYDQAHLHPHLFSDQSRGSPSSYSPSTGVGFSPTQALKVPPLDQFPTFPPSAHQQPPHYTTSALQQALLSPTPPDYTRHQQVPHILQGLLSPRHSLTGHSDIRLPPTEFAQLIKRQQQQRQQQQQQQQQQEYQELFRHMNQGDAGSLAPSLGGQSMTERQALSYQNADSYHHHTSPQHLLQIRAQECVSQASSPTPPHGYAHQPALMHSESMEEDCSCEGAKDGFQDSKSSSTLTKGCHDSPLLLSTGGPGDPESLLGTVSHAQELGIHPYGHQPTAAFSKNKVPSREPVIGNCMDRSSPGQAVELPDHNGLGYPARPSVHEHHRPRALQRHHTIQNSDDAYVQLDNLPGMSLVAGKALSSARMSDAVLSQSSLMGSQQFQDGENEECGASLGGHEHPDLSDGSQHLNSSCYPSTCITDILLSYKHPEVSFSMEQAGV
Outline: (§1)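 Read-out: ^33P incorporated into AMARA peptide, counted on filter plates, taken as kinase activity. Reactions start on addition of labeled/unlabeled ATP to enzyme plus substrate and end with phosphoric acid. Controls: 1% DMSO (negative) and 10 μM staurosporine (positive), final.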

SIK2 [3] = target: T2, SIK2 (Homo sapiens, UniProt Q9H0K1); assay: biochemical; settings: 33P radioactive SIK kinase assay, AMARA peptide, 10 μM ATP
T2 construct: purchased ThermoFisher Scientific PV4792
T2 sequence (Q9H0K1 whole entry): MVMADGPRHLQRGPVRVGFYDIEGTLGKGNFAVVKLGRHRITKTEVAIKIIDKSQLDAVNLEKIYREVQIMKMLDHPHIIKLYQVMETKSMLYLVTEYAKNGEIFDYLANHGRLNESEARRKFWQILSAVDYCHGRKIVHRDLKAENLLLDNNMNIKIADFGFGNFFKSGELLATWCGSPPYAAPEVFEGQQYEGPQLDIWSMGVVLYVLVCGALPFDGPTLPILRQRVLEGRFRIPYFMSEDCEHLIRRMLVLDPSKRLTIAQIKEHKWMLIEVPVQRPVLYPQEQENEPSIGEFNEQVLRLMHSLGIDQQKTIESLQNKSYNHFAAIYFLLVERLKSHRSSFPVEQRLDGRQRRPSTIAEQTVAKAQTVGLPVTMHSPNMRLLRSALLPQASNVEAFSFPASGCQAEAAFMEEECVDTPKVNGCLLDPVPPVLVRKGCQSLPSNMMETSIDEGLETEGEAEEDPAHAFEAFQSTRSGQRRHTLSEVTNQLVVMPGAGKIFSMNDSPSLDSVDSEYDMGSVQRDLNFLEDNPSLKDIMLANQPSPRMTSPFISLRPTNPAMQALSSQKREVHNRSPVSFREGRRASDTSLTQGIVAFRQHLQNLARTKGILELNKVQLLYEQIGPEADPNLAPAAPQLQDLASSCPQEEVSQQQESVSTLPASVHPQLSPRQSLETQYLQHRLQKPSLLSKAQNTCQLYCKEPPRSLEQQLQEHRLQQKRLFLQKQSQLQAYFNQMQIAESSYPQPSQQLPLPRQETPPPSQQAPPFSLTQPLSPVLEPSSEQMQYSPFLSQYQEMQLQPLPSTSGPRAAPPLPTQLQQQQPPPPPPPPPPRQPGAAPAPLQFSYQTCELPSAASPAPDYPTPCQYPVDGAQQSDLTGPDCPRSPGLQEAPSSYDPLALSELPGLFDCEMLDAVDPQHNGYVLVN
Outline: as §1

SIK1 [4] = target: T3, SIK1 (Homo sapiens, UniProt P57059); assay: biochemical; settings: 33P radioactive SIK kinase assay, AMARA peptide, 10 μM ATP; read-out: SIK1 IC50
T3 construct: purchased Carna Biosciences 02-131
T3 sequence (P57059 whole entry): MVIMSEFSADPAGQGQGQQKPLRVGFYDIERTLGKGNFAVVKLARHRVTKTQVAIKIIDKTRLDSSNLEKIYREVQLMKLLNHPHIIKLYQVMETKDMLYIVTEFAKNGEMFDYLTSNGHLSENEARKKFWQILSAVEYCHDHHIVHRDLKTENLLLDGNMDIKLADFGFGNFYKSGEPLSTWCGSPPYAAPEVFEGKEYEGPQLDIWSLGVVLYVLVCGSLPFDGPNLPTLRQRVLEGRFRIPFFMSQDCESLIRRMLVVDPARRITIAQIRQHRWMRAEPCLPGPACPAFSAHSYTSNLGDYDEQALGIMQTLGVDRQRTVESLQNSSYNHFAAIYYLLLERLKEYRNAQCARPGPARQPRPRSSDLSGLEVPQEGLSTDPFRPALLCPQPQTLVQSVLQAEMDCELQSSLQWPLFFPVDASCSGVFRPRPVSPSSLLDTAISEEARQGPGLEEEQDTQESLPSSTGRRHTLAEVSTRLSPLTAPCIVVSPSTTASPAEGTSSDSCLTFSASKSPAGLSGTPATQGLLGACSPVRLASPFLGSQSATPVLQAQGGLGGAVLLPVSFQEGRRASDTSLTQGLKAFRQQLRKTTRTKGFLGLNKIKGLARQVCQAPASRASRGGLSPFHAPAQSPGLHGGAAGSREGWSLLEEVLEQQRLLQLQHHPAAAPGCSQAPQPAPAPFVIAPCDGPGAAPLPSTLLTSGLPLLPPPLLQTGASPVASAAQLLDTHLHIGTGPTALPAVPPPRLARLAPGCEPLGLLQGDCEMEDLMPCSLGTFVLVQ
Outline: as §1

[5] = test system: LPS-induced TNFα secretion in monocyte-derived macrophages (MdM); assay: MdM assay: LPS-triggered TNFα (ELISA); format: cell-based, human; settings: Homo sapiens, Macrophage, LPS-triggered TNFα inhibition
Outline: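 TNFα ELISA read on supernatants harvested 20 h after LPS (final 200 ng/mL) stimulation. Cells were day-10 macrophages derived from human blood CD14+ monocytes, exposed to 3-fold compound dilutions for 1 h at 37 °C beforehand, with DMSO held at 0.2%.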

[6] = test system: LPS triggered IL-10 secretion in monocyte-derived macrophages (MdM); assay: MdM assay: LPS-triggered IL-10 (ELISA); format: cell-based, human; settings: maximal fold change vs LPS only, median across assays
Outline: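 Readout is IL-10FCmax, the median across at least two runs of the highest fold change over LPS-only, from ELISA absorbance at 450 nm of 2 h supernatants. Macrophages came from day-10 cultures of human CD14+ monocytes, were given compound for 1 h at 37° C in 0.2% DMSO, then 200 ng/mL LPS.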

SIK3 [7] = target: T1, SIK3; assay: biochemical; settings: ADP-Glo SIK kinase assay
Outline: (§2)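 ADP-Glo, RT throughout. Enz/substrate + ATP, 120 min; ADP-Glo reagent 40 min (ATP depletion); detection reagent 30 min; luminescence read. Neg ctrl 1% DMSO, pos ctrl 10 μM staurosporine, final concs.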

SIK2 [8] = target: T2, SIK2; assay: biochemical; settings: ADP-Glo SIK kinase assay
Outline: as §2

SIK1 [9] = target: T3, SIK1; assay: biochemical; settings: ADP-Glo SIK kinase assay
Outline: as §2

| IC50 (SIK3 [2]) | IC50 (SIK2 [3]) | IC50 (SIK1 [4]) | EC50 [5] | IC50 (SIK3 [7]) | IC50 (SIK2 [8]) | IC50 (SIK1 [9]) | Compound | EC50 [1] | IL-10 FCmax median [6] |
| --- | --- | --- | --- | --- | --- | --- | --- | --- | --- |
| 10 to 100 nM | 10 to 100 nM | 10 to 100 nM | 100 to 1000 nM | – | – | – | COc1cc(-c2cnc3cc(-c4cnn(C)c4)ccn23)cc(OC)c1C(=O)N[C@@H](C)C(F)(F)F [compound 132, 2,6-dimethoxy-4-[7-(1-methylpyrazol-4-yl)imidazo[1,2-a]pyridin-3-yl]-N-[(1S)-2,2,2-trifluoro-1-methyl-ethyl]benzamide] | 100 to 1000 nM | + (≤1.5) |
| 0.01 to 10 nM | 0.01 to 10 nM | 0.01 to 10 nM | 0.1 to 100 nM | – | – | – | COc1cc(-c2cnc3cc(-c4cnn(C)c4)ccn23)cc(OC)c1C(=O)NCC#N [compound 122, N-(cyanomethyl)-2,6-dimethoxy-4-[7-(1-methylpyrazol-4-yl)imidazo[1,2-a]pyridin-3-yl]benzamide] | 0.1 to 100 nM | ++ (>1.5-4.5) |
| 0.01 to 10 nM | 0.01 to 10 nM | 10 to 100 nM | 0.1 to 100 nM | – | – | – | CCNC(=O)c1c(OC)cc(-c2cnc3cc(-c4cc(C)no4)ccn23)cc1OC(F)F [compound 123, 2-(difluoromethoxy)-N-ethyl-6-methoxy-4-[7-(3-methylisoxazol-5-yl)imidazo[1,2-a]pyridin-3-yl]benzamide] | 0.1 to 100 nM | ++ (>1.5-4.5) |
| 0.01 to 10 nM | 0.01 to 10 nM | 10 to 100 nM | 0.1 to 100 nM | – | – | – | CCNC(=O)c1c(OC)cc(-c2cnc3cc(-c4cn(C)cn4)ccn23)cc1OC(F)F [compound 178, 2-(difluoromethoxy)-N-ethyl-6-methoxy-4-[7-(1-methylimidazol-4-yl)imidazo[1,2-a]pyridin-3-yl]benzamide] | 0.1 to 100 nM | ++ (>1.5-4.5) |
| 10 to 100 nM | 10 to 100 nM | 10 to 100 nM | 100 to 1000 nM | 0.01 to 10 nM | 0.01 to 10 nM | 10 to 100 nM | CCNC(=O)c1c(OC)cc(-n2cnc3cc(-c4cnn(C)c4)cnc32)cc1OC(F)F [compound 177, 2-(difluoromethoxy)-N-ethyl-6-methoxy-4-[6-(1-methylpyrazol-4-yl)imidazo[4,5-b]pyridin-3-yl]benzamide] | 0.1 to 100 nM | – |
| 0.01 to 10 nM | 0.01 to 10 nM | 10 to 100 nM | 0.1 to 100 nM | – | – | – | COc1cc(-n2cnc3cc(-c4cnn(C5CC5)c4)ccc32)cc(OC)c1C(=O)NCC(F)(F)F [compound 96, 4-[5-(l-cyclopropylpyrazol-4-yl)benzimidazol-1-yl]-2,6-dimethoxy-N-(2,2,2-trifluoroethyl)benzamide] | 0.1 to 100 nM | ++ (>1.5-4.5) |
| 10 to 100 nM | 10 to 100 nM | 10 to 100 nM | 100 to 1000 nM | 0.01 to 10 nM | 0.01 to 10 nM | 10 to 100 nM | CCN1Cc2cc(-c3cnc4cc(-c5cnn(C)c5)ccn34)cc(OC)c2C1=O [compound 176, 2-ethyl-7-methoxy-5-[7-(1-methylpyrazol-4-yl)imidazo[1,2-a]pyridin-3-yl]isoindolin-1-one] | 0.1 to 100 nM | – |
| 0.01 to 10 nM | 0.01 to 10 nM | 10 to 100 nM | 0.1 to 100 nM | – | – | – | COCCn1cc(-c2ccc3c(c2)ncn3-c2cc(OC)c(C(=O)NCC(F)(F)F)c(OC)c2)cn1 [compound 84, 2,6-dimethoxy-4-[5-[1-(2-methoxyethyl)pyrazol-4-yl]benzimidazol-1-yl]-N-(2,2,2-trifluoroethyl)benzamide] | 0.1 to 100 nM | ++ (>1.5-4.5) |
| 0.01 to 10 nM | 0.01 to 10 nM | 0.01 to 10 nM | 0.1 to 100 nM | – | – | – | COc1cc(-n2cnc3cc(-c4cnn(CCN5CCOCC5)c4)ccc32)cc(OC(F)F)c1C(=O)NC1CC1 [compound 56, N-cyclopropyl-2-(difluoromethoxy)-6-methoxy-4-[5-[1-(2-morpholinoethyl)pyrazol-4-yl]benzimidazol-1-yl]benzamide] | 0.1 to 100 nM | ++ (>1.5-4.5) |
| 0.01 to 10 nM | 0.01 to 10 nM | 10 to 100 nM | 100 to 1000 nM | – | – | – | CCNC(=O)c1c(OC)cc(-n2cnc3cc(-c4cnn(CCN5CCOCC5)c4)ccc32)cc1OC(F)F [compound 57, 2-(difluoromethoxy)-N-ethyl-6-methoxy-4-[5-[1-(2-morpholinoethyl)pyrazol-4-yl]benzimidazol-1-yl]benzamide] | 0.1 to 100 nM | ++ (>1.5-4.5) |
| 0.01 to 10 nM | 0.01 to 10 nM | 10 to 100 nM | 0.1 to 100 nM | – | – | – | COc1cc(-n2cnc3cc(-c4cnn(C)c4)ccc32)cc(OC)c1C(=O)NCC(F)(F)F [Cpd 25, 2,6-dimethoxy-4-[5-(1-methylpyrazol-4-yl)benzimidazol-1-yl]-N-(2,2,2-trifluoroethyl)benzamide] | 0.1 to 100 nM | ++ (>1.5-4.5) |
| 0.01 to 10 nM | 0.01 to 10 nM | 10 to 100 nM | 0.1 to 100 nM | – | – | – | COc1cc(-n2cnc3cc(-c4cnn(C5COC5)c4)ccc32)cc(OC)c1C(=O)NCC(F)(F)F [compound 85, 2,6-dimethoxy-4-[5-[1-(oxetan-3-yl)pyrazol-4-yl]benzimidazol-1-yl)-N-(2,2,2-trifluoroethyl)benzamide] | 0.1 to 100 nM | ++ (>1.5-4.5) |
| 0.01 to 10 nM | 0.01 to 10 nM | 0.01 to 10 nM | 0.1 to 100 nM | – | – | – | CCNC(=O)c1c(OC)cc(-c2cnc3cc(-c4cnn(C)c4)ccn23)cc1OC(F)F [compound 116, 2-(difluoromethoxy)-N-ethyl-6-methoxy-4-[7-(1-methylpyrazol-4-yl)imidazo[1,2-a]pyridin-3-yl]benzamide] | 0.1 to 100 nM | ++ (>1.5-4.5) |
| 0.01 to 10 nM | 0.01 to 10 nM | 10 to 100 nM | 100 to 1000 nM | – | – | – | COc1cc(-n2cnc3cc(-c4cnn(C)c4)ccc32)cc(OC)c1C(=O)NCC(F)F [compound 78, N-(2,2-difluoroethyl)-2,6-dimethoxy-4-[5-(1-methylpyrazol-4-yl)benzimidazol-1-yl]benzamide] | 0.1 to 100 nM | ++ (>1.5-4.5) |
| 0.01 to 10 nM | 0.01 to 10 nM | 10 to 100 nM | 0.1 to 100 nM | – | – | – | COc1cc(-c2cnc3cc(-c4cnn(C)c4)ccn23)cc(F)c1C(=O)NCC(F)(F)F [compound 203, 2-fluoro-6-methoxy-4-[7-(1-methylpyrazol-4-yl)imidazo[1,2-a]pyridin-3-yl]-N-(2,2,2-trifluoroethyl)benzamide] | 0.1 to 100 nM | +++ (>4.5) |
| 0.01 to 10 nM | 0.01 to 10 nM | 0.01 to 10 nM | 0.1 to 100 nM | – | – | – | COc1cc(-c2cnc3cc(-c4cnn(C)c4)ccn23)cc(OC(F)F)c1C(=O)NC1CC1 [Cpd 124, N-cyclopropyl-2-(difluoromethoxy)-6-methoxy-4-[7-(1-methylpyrazol-4-yl)imidazo[1,2-a]pyridin-3-yl]benzamide] | 0.1 to 100 nM | ++ (>1.5-4.5) |
| 0.01 to 10 nM | 0.01 to 10 nM | 10 to 100 nM | 100 to 1000 nM | – | – | – | COc1cc(-n2cnc3cc(-c4cnn(C5CN(CC#N)C5)c4)ccc32)cc(OC)c1C(=O)NCC(F)(F)F [Cpd 100, 4-[5-[1-[1-(cyanomethyl)azetidin-3-yl]pyrazol-4-yl]benzimidazol-1-yl]-2,6-dimethoxy-N-(2,2,2-trifluoroethyl)benzamide] | 0.1 to 100 nM | – |
| 0.01 to 10 nM | 0.01 to 10 nM | 0.01 to 10 nM | 0.1 to 100 nM | – | – | – | COc1cc(-c2cnc3cc(-c4cnn(C)c4)ccn23)cc(OC)c1C(=O)NC1CC1 [compound 102, N-cyclopropyl-2,6-dimethoxy-4-[7-(1-methylpyrazol-4-yl)imidazo[1,2-a]pyridin-3-yl]benzamide] | 0.1 to 100 nM | ++ (>1.5-4.5) |
| 0.01 to 10 nM | 0.01 to 10 nM | 0.01 to 10 nM | 0.1 to 100 nM | – | – | – | COc1cc(-c2cnc3cc(-c4cnn(C)c4)cnn23)cc(OC)c1C(=O)NC1CC1 [compound 112, N-cyclopropyl-2,6-dimethoxy-4-[7-(1-methylpyrazol-4-yl)imidazo[1,2-b]pvridazin-3-yl]benzamide] | 0.1 to 100 nM | + (≤1.5) |
